{"source": "patent US20090192312A1", "about": "“Brain Function-Improving Agent, and Functional Food Containing the Improving Agent” (MITSUBISHI GAS CHEMICAL COMPANY, INC., priority 2006, published 2009)", "test_system": "Male Wistar rats", "assay": "Morris water maze test of learning and memory abilities", "type": "in vivo", "details": "feed containing 0.02% PQQ·2Na, 21 days of breeding; one trial daily for 20 days; versus PQQ·2Na-free treatment groups; 9 animals per group", "from_the_text": "Male Wistar rats (9 weeks old) were bred using a feed containing 0.02% pyrroloquinoline quinone disodium salt (PQQ·2Na) or 0.3% coenzyme Q10 (CoQ10) alone or both in combination or a feed free from these compounds. From the age of 12 week old after 21 days of breeding, 9 animals per group were subjected to a test of learning and memory abilities using a Morris water maze. Specifically, the bottom of a circular pool (150 cm in diameter, 45 cm in depth) was divided into four quadrants with white lines. A circular platform was placed at the center of one of the quadrants so that it was hidden under the water. Each rat was allowed to swim from different positions of the other three quadrants having no platform, and the time until it reached the platform was measured. This test was tried once daily for a total of 20 days. The learning rate was calculated by the following equation: Learning rate (%)=100−(mean time until rat reaches the platform at the Xth trial/mean time until rat reaches the platform at the first trial)×100"}
{"smiles": "O=C(O)c1cc(C(=O)O)c2c(n1)C(=O)C(=O)c1cc(C(=O)O)[nH]c1-2.[Na].[Na]", "note": "[PQQ·2Na, pyrroloquinoline quinone disodium salt]", "values": [{"measurement": "increasing rate of the learning rate", "value": "statistically significantly higher"}]}
